In patent publication US20050208496A1, “Methods of testing for bronchial asthma or chronic obstructive pulmonary disease” (Genox Research, Inc., priority 2002, published 2005):

System: respiratory epithelial cells

## IL-13: human IL-13 (Peprotech, Inc.) added to the medium at 50 ng/mL to stimulate respiratory epithelial cells
Lot 2, Day 7, AI method
  DPP4 (34823_at) expression fold change upon IL-13 stimulation: 10 fold
  DPYD (38220_at) expression fold change upon IL-13 stimulation: 2.1 fold
  FADS3 (43394_s_at) expression fold change: 9.8 fold
  FLJ10261 (43366_at) expression fold change: 7.9 fold
  FLJ10261 (43963_at) expression fold change: 6.2 fold
  FLJ14281 (50209_at) expression fold change: 2 fold
  FLJ22332 (56959_at) expression fold change: 3.6 fold
  FLJ22693 (53777_at) expression fold change: 1.6 fold
  G1P3 (1358_s_at) expression, fold change upon IL-13 stimulation: 10.9 fold
  H11 (56474_at) expression fold change: 2.1 fold
  HDAC9 (37483_at) expression fold change upon IL-13 stimulation: 26.1 fold
  HLA-F (37420_i_at) expression, fold change upon IL-13 stimulation: 2.8 fold
  HLA-F (37421_f_at) expression, fold change upon IL-13 stimulation: 2.2 fold
  HLA-F (49203_f_at) expression fold change: 2.8 fold
  HLALS (34427_g_at) expression, fold change upon IL-13 stimulation: 2 fold
  HS3ST1 (41556_s_at) expression fold change upon IL-13 stimulation: 2.5 fold
  HSD17B2 (38178_at) expression fold change upon IL-13 stimulation: 3.5 fold
  HSPA5 (47634_at) expression fold change: 2.6 fold
  HUMRTVLH3 (34702_f_at) expression, fold change upon IL-13 stimulation: 3.1 fold
  Human hbc647 mRNA sequence (34759_at) expression, fold change upon IL-13 stimulation: 2.9 fold
  ICAMt (32640_at) expression fold change upon IL-13 stimulation: 4.1 fold
  IFI27 (425_at) expression, fold change upon IL-13 stimulation: 4.7 fold
  IFI27 (48864_at) expression fold change: 3.3 fold
  IFI30 (39728_at) expression, fold change upon IL-13 stimulation: 2.3 fold
  IFIT1 (915_at) expression, fold change upon IL-13 stimulation: 7.7 fold
  IFIT4 (38584_at) expression, fold change upon IL-13 stimulation: 3.6 fold
  IL13RA2 (1016_s_at) expression fold change upon IL-13 stimulation: 36.5 fold
  IRF7 (36412_s_at) expression fold change: 3.6 fold
  IRLB (32961_at) expression fold change: 2 fold
  ISG15 (1107_s_at) expression, fold change upon IL-13 stimulation: 4.3 fold
  ISG15 (38432_at) expression, fold change upon IL-13 stimulation: 6.9 fold
  KIAA0469 (37230_at) expression, fold change upon IL-13 stimulation: 3 fold
  KIAA0537 (33787_at) expression, fold change upon IL-13 stimulation: 4.8 fold
  KIAA1199 (36070_at) expression, fold change upon IL-13 stimulation: 3.4 fold
  KIAA1268 (57050_at) expression fold change: 1.7 fold
  KIAAI268 (59516_at) expression fold change: 5.9 fold
  KRT16 (601_s_at) expression fold change: 2 fold
  LAMP3 (37168_at) expression, fold change upon IL-13 stimulation: 3 fold
  LOC64116 (40456_at) expression, fold change upon IL-13 stimulation: 3 fold
  LRPAP1 (36194_at) expression, fold change upon IL-13 stimulation: 2.2 fold
  MAT2A (32571_at) expression fold change upon IL-13 stimulation: 2.9 fold
  MDA5 (51920_at) expression fold change: 2.8 fold
  MED6 (35432_at) expression fold change: 2 fold
  MET (1609_g_at) expression, fold change upon IL-13 stimulation: 3.4 fold
  MET (1812_s_at) expression, fold change upon IL-13 stimulation: 5.8 fold
  MET (35684_at) expression, fold change upon IL-13 stimulation: 2.4 fold
  MFHAS1 (50388_at) expression fold change: 2.4 fold
  MICB (35937_at) expression, fold change upon IL-13 stimulation: 5.6 fold
  MKP-L (38272_at) expression, fold change upon IL-13 stimulation: 5.1 fold
  MMP7 (668_s_at) expression, fold change upon IL-13 stimulation: 2 fold
  MP1 (34839_at) expression, fold change upon IL-13 stimulation: 2.4 fold
  MXI (37014_at) expression fold change: 4.2 fold
  NCF2 (41038_at) expression fold change: 4.2 fold
  NFIL3 (37544_at) expression fold change: 2.7 fold
  NTRK1 (36805_s_at) expression, fold change upon IL-13 stimulation: 4.9 fold
  OAF (39695_at) expression, fold change upon IL-13 stimulation: 11.4 fold
  OSF-2 (1451_s_at) expression fold change upon IL-13 stimulation: 46.4 fold
  PAK2 (1560_g_at) expression, fold change upon IL-13 stimulation: 3.8 fold
  PITPNB (353_at) expression, fold change upon IL-13 stimulation: 2 fold
  PITPNB (35017_f_at) expression, fold change upon IL-13 stimulation: 2.4 fold
  PMCH (32005_at) expression fold change: 4.3 fold
  PSMB9 (38287_at) expression fold change upon IL-13 stimulation: 2.4 fold
  PVRL2 (50320_g_at) expression fold change: 2.2 fold
  RASGRP1 (33291_at) expression fold change: 4.2 fold
  SECTM1 (41045_at) expression, fold change upon IL-13 stimulation: 4.6 fold
  SERPINB2 (37185_at) expression fold change: 3.4 fold
  SERPINB4 (1549_s_at) expression fold change: 15 fold
  SIAT1 (41352_at) expression fold change upon IL-13 stimulation: 2.4 fold
  SLC26A4, pendrin (36376_at) expression fold change: 58.2 fold
  SPHK1 (51923_at) expression fold change: 2.5 fold
  SSI-1 (41592_at) expression, fold change upon IL-13 stimulation: 11.3 fold
  STAT1 (32859_at) expression fold change: 2.6 fold
  STAT1 (33339_g_at) expression fold change: 2.5 fold
  TGFB2 (1262_s_at) expression fold change upon IL-13 stimulation: 5.9 fold
  TGM2 (38404_at) expression fold change upon IL-13 stimulation: 6 fold
  TSPAN-3 (38612_at) expression, fold change upon IL-13 stimulation: 2.7 fold
  TXNRD1 (39425_at) expression fold change upon IL-13 stimulation: 3.3 fold
  UFD1L (811_at) expression, fold change upon IL-13 stimulation: 3.2 fold
  W06879 (57696_at) expression fold change: 2 fold
  ZNF263 (33288_i_at) expression fold change: 2 fold
  cig5 (38549_at) expression, fold change upon IL-13 stimulation: 7.4 fold
Lot 2 Day 7 AI
  AA045020 (44676_at) expression change: −7.1
  AA053401 (56234_r_at) expression change: −3.2
  AA059445 46293_at expression change: −11.7
  AA059458 (65626_at) expression change: −4.6
  AA079839 (69289_at) expression change: −2.3
  AA151265 (60939_i_at) expression change: −2.7
  AA151265 (60940_r_at) expression change: −11.6
  AA160156 (47578_at) expression change: −3.1
  AA203423 (65699_at) expression change: −4.7
  AA369887 (87539_i_at) expression change: −2.6
  AA398155 (48999_at) expression change: −3.8
  AA400080 (57282_at) expression change: −4.1
  AA422178 (53747_at) expression change: −32.2
  AA428312 (83988_at) expression change: −5.4
  AA442232 (59109_at) expression change: −2.2
  AA456099 (59567_at) expression change: −3.5
  AA772055 46104_at expression change: −15.1
  AA779895 59136_at expression change: −6.6
  ABCC5 1932_at expression change: −5
  AF052107 38262_at expression change: −6.5
  AI264299 (84903_f_at) expression change: −5.9
  AI432375 (49819_at) expression change: −5
  AI669212 55436_at expression change: −6.9
  AI740855 (83076_at) expression change: −3.5
  AI761647 40191_s_at expression change: −4
